Reference: patent US20150273076A1, “SP1 POLYPEPTIDES, MODIFIED SP1 POLYPEPTIDES AND USES THEREOF” (Fulcrum SP Ltd., priority 2006, published 2015)

Tests used:
[1] = Doxorubicin complex formation and release (ultrafiltration, HPLC, SDS PAGE fluorescence); assay type: binding; conditions: reducing conditions (DTT or GSH)
Experimental: Pure wild type SP1 or Cys2 SP1 mutant (1.5 mg/ml in 20 mM Sodium Phosphate buffered, pH=6.8) were incubated overnight at room temp, with DOX 1 mg/ml in the presence of DTT (10 mM), with gentle rolling. Binding reaction was stopped by adding hydrogen peroxide (0.01%), followed by ultra filtration (using 30 kD cutoff filter) and extensive wash until follow-through become colorless. Optical density was measured at both 278 and 477 nm using nanodrop spectrophotometer. Note the dramatic effect of the reducing agent on drug binding by the Cys2 SP1, compared to the absence of effect on the wild type SP1.
FIG. 13 is a histogram illustrating the redox-dependent release of Doxorubicin by Cys2 SP1. Doxorubicin (DOX) was complexed within Cys2 SP1 as described in FIGS. 9-12 above. Release of the drug in the presence of 0, 2 and 20 mM GSH was measured by ultrafiltration and size exclusion HPLC analysis (detection at 228 and 475 nm);
FIG. 14 is a histogram illustrating the effect of oxidation on DOX complex formation by Cys2 SP1. Doxorubicin (DOX) was reacted with Cys2 SP1 and wild type SP1 as described in FIGS. 9-13 above. Oxidized protein indicates exposure to excess of H2O2 prior to treatment with GSH. DOX complex formation was measured by ultrafiltration and size exclusion HPLC analysis (detection at 228 and 475 nm). […] 1=the retentate; 2=the flow through; and 3=a DOX standard 20 μg/ml.
FIG. 17 is a photograph of a fluorescent PAGE analysis illustrating effective complex formation with DOX by Cys2 and SP1 fusion proteins. Recombinant wild type (lanes 1 and 2), Cys2 (lanes 3 and 4), and SP1 fusion proteins having additional N-terminal tumor specific peptide RGD (CRGD, SEQ ID NO:151; fusion protein is SEQ ID NO: 5)(lanes 5 and 6), or RGD in reverse order (RGDC, SEQ ID NO: 152; fusion protein is SEQ ID NO: 6)(lanes 7 and 8) were reacted with DOX to form complex as described in FIGS. 9-14 above, and then separated on SDS-PAGE with (lanes 2, 4, 6 and 8) or without (lanes 1, 3, 5 and 7) denaturation by boiling in LSB.
(§1) Ultrafiltration was used for the detection of complex formation with the water soluble ligands FA and DOX which have a distinctive absorption properties and can be determined by spectroscopic measurements. […] Several additional washing cycles remove all remaining free FA and DOX, and the ligand-SP1 complex remains in the retained fraction.
(§2) Size exclusion chromatography is a common method for separation of molecules of different sizes under mild conditions and was employed to test FA and DOX complex formation under mild conditions. SP1 is eluted from the column after 7 min and is detected at 278 nm only, and free FA is eluted from the column (TSK G3000 SWXL, Tosohaas) after 16 min and is detected at 490 nm. The SP1-FA and SP1-DOX complexes also eluted at the same time but is detected also at 490 and 475 nm, respectively. DOX/SP1 ratio is determine from the standard curve obtained in solution.
Reverse phase HPLC (RP-HPLC) analysis separates between free DOX, PXT, and SP1. Both compounds bind to the resin (C-18) and are eluted at different acetonitrile concentrations, and detected at both 278 and 225 nm (SP1), 225 nm (PTX) and 477 nm (DOX).
Pyrogen free Cys2 SP1 variant (SEQ ID NO:3) in 20 mM (Na Phosphate buffer pH-6.7) final 2 mg/ml was diluted with DOX solution (Teva, Israel) 1:2 dilution final 1 mg/ml. Where indicated, GSH was added, and the solution is mixed overnight. Where indicated (oxidized), H2O2 is added to 0.1%, buffer added to 3× volume, and the solution is sonicated (3×22 sec. 1:1 pulse/pause at 3% amplitude 0.5 min. pause, using a Vibra-Cell 750 W sonicator).

[2] = Heat stability (no precipitation after heat treatment); conditions: 10 min at 100° C. or 30 min at 85° C.
[3] = Fluorescein-amine complex formation (ultrafiltration, size exclusion HPLC); assay type: binding
Experimental: FIG. 9 is a histogram showing redox-dependent complex formation with small molecules by Cys2 SP1. Pure Cys 2 mutant (1.5 mg/ml in Phosphate buffered saline, pH=7.5 (PBS)) was incubated for 2 hours at room temp, with I mM fluorescein-amine with or without glutathione (reduced form, GSH 3 mM). Binding reaction was stopped by adding hydrogen peroxide (0.01%), followed by ultra filtration (using a 30 kD cutoff filter) and extensive wash. Absorption analysis was conducted at both 278 and 492 nm, and the results expressed as the 492/278 ratio. Note that in the absence of the reducing agent (GSH), retention of the flourescein-amine is negligible;
FIG. 10 is a graphic representation of the redox-dependent fluorescein amine complex formation by Cys2 SP1, compared to the recombinant SP1. Fluorescein-amine was incubated with pure SP1 or Cys2 SP1 mutant (1.5 mg/ml in PBS pH=7.5) in the absence or presence of DTT (10 mM). Binding reaction was stopped by adding hydrogen peroxide (0.01%), followed by ultra filtration (using 30 kD cutoff filter) and extensive wash. Samples were analyzed by Gel filtration HPLC, and detected at both 228 and 490 nm. Calculated data is shown on the right.
FIG. 11 is a histogram illustrating the concentration dependent complex formation with fluorescein-amine by Cys2 SP1. Huorescien-amine (10, 33, 100 or 333 mM) was incubated with Cys 2 SP1 or pure wild type SP1 in the presence of 10 mM DTT, and the bound and unbound fractions analyzed by ultra-filtration and HPLC as in FIG. 10.
as §1, §2
5. Can complexed ligand be stabilized by association with the Cys2 SP1? Fluoresceine amine (FA): FA absorption peak is at 490 nm and at much lower extend at 278 nm (for a given FA concentration OD278/OD490=0.19)(see FIG. 31), when SP1 absorption peak is at 278 nm (see FIG. 30), and it is not detected at 490 nm. […] FA complexing with the Cys2 Sp1 variant was determined following incubation of FA and Cys2 SP1 variant in the absence or presence of GSH, followed by protein oxidation, ultra filtration (30 kDa cutoff) and exhaustive wash of the retained fraction with PBS with or without GSH. Absorption analysis at both 278 and 490 nm.

## wild type: stress related SP1 protein from aspen (Populus tremula), recombinant, SEQ ID NO:1
[1]
  DOX complex formation: much lower extent
[1]; listed as wild type SP1
  DOX complex formation: no complexes are formed
[2]
  Heat stability: +
[3]; 10 μM FA, 10 mM DTT
  FA complexing at low ligand concentration: no discernable FA complexing
[3]; presence or absence of reducing agents, size exclusion chromatography
  complex formation with the FA marker: hardly forms complexes
